Where two headings read alike, the source gives them in different places.
Key:
SARS-CoV-2 nsp3-mac1 [1] = target: T1, SARS-CoV-2 nsp3-mac1 (Severe acute respiratory syndrome coronavirus 2, UniProt P0DTD1); assay: biochemical; assay type: biochemical; conditions: SARS-CoV-2 nsp3 macrodomain TR-FRET single point, n=2
SARS-CoV-2 nsp3-mac1 [2] = target: T1, SARS-CoV-2 nsp3-mac1; assay: biochemical; parameters: SARS-CoV-2 nsp3 macrodomain TR-FRET single point, per cent inhibition, n=2
[3] = read-out: perc_inhibition_mean, batch_name=ASAP-0000325-001
[4] = read-out: perc_inhibition_mean, batch_name=ASAP-0000326-001
[5] = read-out: perc_inhibition_mean, batch_name=ASAP-0000327-001
[6] = read-out: perc_inhibition_mean, batch_name=ASAP-0000328-001
[7] = read-out: perc_inhibition_mean, batch_name=ASAP-0000329-001
[8] = read-out: perc_inhibition_mean, batch_name=ASAP-0000330-001
[9] = read-out: perc_inhibition_mean, batch_name=ASAP-0000331-001
[10] = read-out: perc_inhibition_mean, batch_name=ASAP-0000332-001
[11] = read-out: perc_inhibition_mean, batch_name=ASAP-0000333-001
[12] = read-out: perc_inhibition_mean, batch_name=ASAP-0000334-001
[13] = read-out: perc_inhibition_mean, batch_name=ASAP-0000335-001
[14] = read-out: perc_inhibition_mean, batch_name=ASAP-0000336-001
[15] = read-out: perc_inhibition_mean, batch_name=ASAP-0000337-001
[16] = read-out: perc_inhibition_mean, batch_name=ASAP-0000338-001
[17] = read-out: perc_inhibition_mean, batch_name=ASAP-0000339-001
[18] = read-out: perc_inhibition_mean, batch_name=ASAP-0000340-001
[19] = read-out: perc_inhibition_mean, batch_name=ASAP-0000341-001
[20] = read-out: perc_inhibition_mean, batch_name=ASAP-0000342-001
[21] = read-out: perc_inhibition_mean, batch_name=ASAP-0000343-001
[22] = read-out: perc_inhibition_mean, batch_name=ASAP-0000344-001
[23] = read-out: perc_inhibition_mean, batch_name=ASAP-0000345-001
[24] = read-out: perc_inhibition_mean, batch_name=ASAP-0000346-001
[25] = read-out: perc_inhibition_mean, batch_name=ASAP-0000347-001
[26] = read-out: perc_inhibition_mean, batch_name=ASAP-0000348-001
[27] = read-out: perc_inhibition_mean, batch_name=ASAP-0000349-001

Row | SMILES | perc_inhibition_mean (SARS-CoV-2 nsp3-mac1 [1]; concentration 49.75 uM) [%] | perc_inhibition_mean (SARS-CoV-2 nsp3-mac1 [1]; concentration 99.5 uM) [%] | also measured
1 | N[C@@H]1CCC[C@@H](C(=O)N(CCC(=O)N2CCNCC2)Cc2cccc(Cl)c2)C1 [ASAP-0000325] | -0.755 | -1.468 | inhibition at 49.75 µM (SARS-CoV-2 nsp3-mac1 [2]; [3]): -0.755%; inhibition at 99.5 µM (SARS-CoV-2 nsp3-mac1 [2]; [3]): -1.47%
2 | O=C(CCN(Cc1cccc(Cl)c1)C(=O)C1(O)CCCC1)N1CCNCC1 [ASAP-0000326] | -1.213 | -1.781 | inhibition at 49.75 µM (SARS-CoV-2 nsp3-mac1 [2]; [4]): -1.21%; inhibition at 99.5 µM (SARS-CoV-2 nsp3-mac1 [2]; [4]): -1.78%
3 | Cc1nccc(C(=O)N2CCC(c3ccn4ncc(C(=O)N5CCCCC5)c4c3)CC2)n1 [ASAP-0000327] | 16.537 | 27.369 | inhibition at 49.75 µM (SARS-CoV-2 nsp3-mac1 [2]; [5]): 16.5%; inhibition at 99.5 µM (SARS-CoV-2 nsp3-mac1 [2]; [5]): 27.4%
4 | O=C(c1cn2ncccc2n1)N1CCC(c2ccn3ncc(C(=O)N4CCCCC4)c3c2)CC1 [ASAP-0000328] | 30.741 | 53.75 | inhibition at 49.75 µM (SARS-CoV-2 nsp3-mac1 [2]; [6]): 30.7%; inhibition at 99.5 µM (SARS-CoV-2 nsp3-mac1 [2]; [6]): 53.8%
5 | O=C(c1cc(O)ccn1)N1CCC(c2ccn3ncc(C(=O)N4CCCCC4)c3c2)CC1 [ASAP-0000329] | 17.623 | 32.165 | inhibition at 49.75 µM (SARS-CoV-2 nsp3-mac1 [2]; [7]): 17.6%; inhibition at 99.5 µM (SARS-CoV-2 nsp3-mac1 [2]; [7]): 32.2%
6 | Cc1n[nH]c(C)c1C(=O)N1CCC(c2ccn3ncc(C(=O)N4CCCCC4)c3c2)CC1 [ASAP-0000330] | 10.806 | 23.296 | inhibition at 49.75 µM (SARS-CoV-2 nsp3-mac1 [2]; [8]): 10.8%; inhibition at 99.5 µM (SARS-CoV-2 nsp3-mac1 [2]; [8]): 23.3%
7 | Cn1cnc(C(=O)N(CCC(=O)N2CCNCC2)Cc2cccc(Cl)c2)n1 [ASAP-0000331] | -1.441 | -0.25 | inhibition at 49.75 µM (SARS-CoV-2 nsp3-mac1 [2]; [9]): -1.44%; inhibition at 99.5 µM (SARS-CoV-2 nsp3-mac1 [2]; [9]): -0.25%
8 | Cc1cocc1C(=O)N(CCC(=O)N1CCNCC1)Cc1cccc(Cl)c1 [ASAP-0000332] | 1.398 | 0.51 | inhibition at 49.75 µM (SARS-CoV-2 nsp3-mac1 [2]; [10]): 1.4%; inhibition at 99.5 µM (SARS-CoV-2 nsp3-mac1 [2]; [10]): 0.51%
9 | Cn1nncc1C(=O)N(CCC(=O)N1CCNCC1)Cc1cccc(Cl)c1 [ASAP-0000333] | 0.447 | -2.15 | inhibition at 49.75 µM (SARS-CoV-2 nsp3-mac1 [2]; [11]): 0.447%; inhibition at 99.5 µM (SARS-CoV-2 nsp3-mac1 [2]; [11]): -2.15%
10 | O=C(CCN(Cc1cccc(Cl)c1)C(=O)c1cnon1)N1CCNCC1 [ASAP-0000334] | -2.442 | -1.082 | inhibition at 49.75 µM (SARS-CoV-2 nsp3-mac1 [2]; [12]): -2.44%; inhibition at 99.5 µM (SARS-CoV-2 nsp3-mac1 [2]; [12]): -1.08%
11 | O=C(CCN(Cc1cccc(Cl)c1)C(=O)c1ccc(F)cn1)N1CCNCC1 [ASAP-0000335] | 6.758 | 6.737 | inhibition at 49.75 µM (SARS-CoV-2 nsp3-mac1 [2]; [13]): 6.76%; inhibition at 99.5 µM (SARS-CoV-2 nsp3-mac1 [2]; [13]): 6.74%
12 | Nc1c(O)cccc1C(=O)N(CCC(=O)N1CCNCC1)Cc1cccc(Cl)c1 [ASAP-0000336] | -1.238 | 1.457 | inhibition at 49.75 µM (SARS-CoV-2 nsp3-mac1 [2]; [14]): -1.24%; inhibition at 99.5 µM (SARS-CoV-2 nsp3-mac1 [2]; [14]): 1.46%
13 | O=C(NCC1(O)CCOCC1)c1cnn2ccc(C3CCN(C(=O)c4ccccc4)CC3)cc12 [ASAP-0000337] | -3.965 | -1.103 | inhibition at 49.75 µM (SARS-CoV-2 nsp3-mac1 [2]; [15]): -3.96%; inhibition at 99.5 µM (SARS-CoV-2 nsp3-mac1 [2]; [15]): -1.1%
14 | CNC[C@@H]1CCCN1C(=O)c1cnn2ccc(C3CCN(C(=O)c4ccccc4)CC3)cc12 [ASAP-0000338] | -1.474 | -2.203 | inhibition at 49.75 µM (SARS-CoV-2 nsp3-mac1 [2]; [16]): -1.47%; inhibition at 99.5 µM (SARS-CoV-2 nsp3-mac1 [2]; [16]): -2.2%
15 | CN(Cc1cn(C)nn1)C(=O)c1ccc(NC(=O)Nc2ccccc2)cc1 [ASAP-0000339] | 0.883 | 0.566 | inhibition at 49.75 µM (SARS-CoV-2 nsp3-mac1 [2]; [17]): 0.883%; inhibition at 99.5 µM (SARS-CoV-2 nsp3-mac1 [2]; [17]): 0.566%
16 | Cn1cc(Br)c(CNC(=O)c2ccc(NC(=O)Nc3ccccc3)cc2)n1 [ASAP-0000340] | 4.308 | 1.196 | inhibition at 49.75 µM (SARS-CoV-2 nsp3-mac1 [2]; [18]): 4.31%; inhibition at 99.5 µM (SARS-CoV-2 nsp3-mac1 [2]; [18]): 1.2%
17 | O=C(NCc1cn[nH]c1)c1cnn2ccc(C3CCN(C(=O)c4ccccc4)CC3)cc12 [ASAP-0000341] | -2.366 | -4.505 | inhibition at 49.75 µM (SARS-CoV-2 nsp3-mac1 [2]; [19]): -2.37%; inhibition at 99.5 µM (SARS-CoV-2 nsp3-mac1 [2]; [19]): -4.5%
18 | O=C(Nc1ccccc1)Nc1ccc(C(=O)Nc2cnnc(Cl)c2)cc1 [ASAP-0000342] | -1.718 | -0.19 | inhibition at 49.75 µM (SARS-CoV-2 nsp3-mac1 [2]; [20]): -1.72%; inhibition at 99.5 µM (SARS-CoV-2 nsp3-mac1 [2]; [20]): -0.19%
19 | O=C1NC[C@@H](C(=O)N(CCC(=O)N2CCNCC2)Cc2cccc(Cl)c2)O1 [ASAP-0000343] | 0.125 | 5.241 | inhibition at 49.75 µM (SARS-CoV-2 nsp3-mac1 [2]; [21]): 0.125%; inhibition at 99.5 µM (SARS-CoV-2 nsp3-mac1 [2]; [21]): 5.24%
20 | O=C(CCN(Cc1cccc(Cl)c1)C(=O)[C@H]1C[C@H](O)C1)N1CCNCC1 [ASAP-0000344] | -2.133 | -3.766 | inhibition at 49.75 µM (SARS-CoV-2 nsp3-mac1 [2]; [22]): -2.13%; inhibition at 99.5 µM (SARS-CoV-2 nsp3-mac1 [2]; [22]): -3.77%
21 | O=C(c1cnc[nH]1)N1CCC(c2ccn3ncc(C(=O)N4CCCCC4)c3c2)CC1 [ASAP-0000345] | 20.282 | 35.337 | inhibition at 49.75 µM (SARS-CoV-2 nsp3-mac1 [2]; [23]): 20.3%; inhibition at 99.5 µM (SARS-CoV-2 nsp3-mac1 [2]; [23]): 35.3%
22 | C[C@H](NC(=O)c1cnn2ccc(C3CCN(C(=O)c4ccccc4)CC3)cc12)c1cccnc1 [ASAP-0000346] | -1.839 | -6.209 | inhibition at 49.75 µM (SARS-CoV-2 nsp3-mac1 [2]; [24]): -1.84%; inhibition at 99.5 µM (SARS-CoV-2 nsp3-mac1 [2]; [24]): -6.21%
23 | O=C(N[C@@H]1CCCNC1=O)c1cnn2ccc(C3CCN(C(=O)c4ccccc4)CC3)cc12 [ASAP-0000347] | -3.161 | -4.869 | inhibition at 49.75 µM (SARS-CoV-2 nsp3-mac1 [2]; [25]): -3.16%; inhibition at 99.5 µM (SARS-CoV-2 nsp3-mac1 [2]; [25]): -4.87%
24 | O=C(NCc1c[nH]nn1)c1cnn2ccc(C3CCN(C(=O)c4ccccc4)CC3)cc12 [ASAP-0000348] | -2.856 | 2.165 | inhibition at 49.75 µM (SARS-CoV-2 nsp3-mac1 [2]; [26]): -2.86%; inhibition at 99.5 µM (SARS-CoV-2 nsp3-mac1 [2]; [26]): 2.17%
25 | CN1CCC[C@@H]1CNC(=O)c1cnn2ccc(C3CCN(C(=O)c4ccccc4)CC3)cc12 [ASAP-0000349] | -4.432 | 1.495 | inhibition at 49.75 µM (SARS-CoV-2 nsp3-mac1 [2]; [27]): -4.43%; inhibition at 99.5 µM (SARS-CoV-2 nsp3-mac1 [2]; [27]): 1.5%

Reference: article doi:10.1101/2024.08.19.608619, “Discovery of potent SARS-CoV-2 nsp3 macrodomain inhibitors uncovers lack of translation to cellular antiviral response” (bioRxiv, 2024)
